Experimental data from patent US20240158348A1, “HERBICIDAL CYCLIC AMIDES N-SUBSTITUTED WITH A HALOALKYLSULFONYLANILIDE GROUP” (FMC Corporation, priority 2021, published 2024).

Assays:
Type in all cases: in vivo
[1] = tested on: sedge, umbrella (small-flower umbrella sedge, Cyperus difformis); assay: Test D flooded paddy test, umbrella sedge; set-up: key: 0 = no effect, 100 = complete control; conditions: 250 g ai/ha, Flood; applied to paddy water at 2-leaf stage; visual rating after 13 days; scale 0 (no effect) to 100 (complete control)
Method in brief: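 Under 3 cm of standing water, kept constant after treatment, 2-leaf plants received compound via the paddy water. Ratings on a 0–100 control scale were assigned visually after 13 greenhouse days; a dash denotes no test result.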

[2] = tested on: pigweed, palmer (palmer amaranth, Amaranthus palmeri); assay: Test C preemergence, palmer amaranth; conditions: 0 is no effect, 100 is complete control
Method in brief: (§1)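 Plants grown in a sand and loam soil blend received the formulated test chemicals either as a preemergence soil-directed spray or postemergence at 2 to 10 cm height. After 10 or 12 greenhouse days, injury was assessed visually, with 100 meaning complete control.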

[3] = tested on: pigweed, palmer (palmer amaranth, Amaranthus palmeri); assay: Test C postemergence, palmer amaranth; conditions: for Pigweed, Palmer plant response rating: visual injury, 0 to 100 scale (0 no effect, 100 complete control); for Plant response rating (0 to 100 scale), Pigweed, Palmer: 0 is no effect, 100 is complete control
Method in brief: as §1

[4] = tested on: blackgrass (Alopecurus myosuroides); assay: Test C postemergence, blackgrass; conditions: 125 g ai/ha Postemergence; 0 is no effect, 100 is complete control

Row | Compound | Plant response rating, Sedge, Umbrella [1] | Plant response rating (0 to 100 scale), Pigweed, Palmer ([2]; 31 g ai/ha Preemergence) | Plant response rating (0 to 100 scale), Pigweed, Palmer ([2]; 125 g ai/ha Preemergence) | Pigweed, Palmer plant response rating ([3]; 31 g ai/ha Postemergence) | Pigweed, Palmer plant response rating ([3]; 125 g ai/ha Postemergence) | Plant response rating (0 to 100 scale), Blackgrass [4] | Plant response rating (0 to 100 scale), Pigweed, Palmer ([3]; 125 g ai/ha Postemergence)
1 | Cc1cc(C)c(N2CCC(OC3CC3)C2=O)cc1NS(=O)(=O)C(F)(F)F (single isomer, unassigned) [Compound 29] | 95 | 100 | 100 | 60 | 90 | 70 | 
2 | Cc1cc(C)c(N2CCC(OC3CC3)C2=O)cc1NS(=O)(=O)C(F)(F)F (single isomer, unassigned) [Compound 30] | 98 | 100 | 100 | 60 | 90 | 90 | 
3 | Cc1cc(C)c(N2CC/C(=N\O)C2=O)cc1NS(=O)(=O)C(F)(F)F [Compound 10, 1,1,1-trifluoro-N-[5-[3-(hydroxyimino)-2-oxo-1-pyrrolidinyl]-2,4-dimethylphenyl]methanesulfonamide] | 80 | 50 | 100 | 60 |  | 90 | 90
4 | C#CCO/N=C1\CCN(c2cc(NS(=O)(=O)C(F)(F)F)c(C)cc2C)C1=O [Compound 13, N-[2,4-dimethyl-5-[2-oxo-3-[(2-propyn-1-yloxy)imino]-1-pyrrolidinyl]phenyl]-1,1,1-trifluoromethanesulfonamide] | 100 | 100 | 100 | 80 |  | 90 | 90
5 | Cc1cc(C)c(N2CCC(O)C2=O)cc1NS(=O)(=O)C(F)(F)F (stereo not drawn) [Compound 14] | 35 | 90 | 100 | 40 |  | 70 | 90
6 | COC(=O)N(c1cc(N2CCC(OC3CC3)C2=O)c(C)cc1C)S(=O)(=O)C(F)(F)F (stereo not drawn) [Compound 16] | 0 | 0 | 0 | 0 |  | 0 | 0
7 | CC(=O)N(c1cc(N2CCC(OC3CC3)C2=O)c(C)cc1C)S(=O)(=O)C(F)(F)F (stereo not drawn) [Compound 17] | 95 | 80 | 100 | 40 |  | 80 | 90
8 | CCOC(=O)N(c1cc(N2CCC(OC3CC3)C2=O)c(C)cc1C)S(=O)(=O)C(F)(F)F (stereo not drawn) [Compound 19] | 0 | 20 | 60 | 0 |  | 40 | 10
9 | CCCC(=O)OCN(c1cc(N2CCC(OC3CC3)C2=O)c(C)cc1C)S(=O)(=O)C(F)(F)F (stereo not drawn) [Compound 20] | 98 | 90 | 100 | 50 |  | 90 | 80
10 | Cc1cc(C)c(N(C(=O)OCC(C)C)S(=O)(=O)C(F)(F)F)cc1N1CCC(OC2CC2)C1=O (stereo not drawn) [Compound 21] | 98 | 100 | 100 | 30 |  | 80 | 70
11 | Cc1cc(C)c(N2CCC(OCC3CC3)C2=O)cc1NS(=O)(=O)C(F)(F)F (stereo not drawn) [Compound 22] | 95 | 100 | 100 | 50 |  | 90 | 80
12 | Cc1cc(C)c(N2CCC(OCC3CC3(F)F)C2=O)cc1NS(=O)(=O)C(F)(F)F (stereo not drawn) [Compound 41] | 70 | 100 | 100 | 50 | 90 |  | 
13 | Cc1cc(C)c(N2CCC(OCC3CCCO3)C2=O)cc1NS(=O)(=O)C(F)(F)F (stereo not drawn) [Compound 42] | 90 | 80 | 100 | 50 | 70 |  | 
14 | Cc1cc(C)c(N2CCC(OCC3CCC3)C2=O)cc1NS(=O)(=O)C(F)(F)F (stereo not drawn) [Compound 43] | 95 | 70 | 100 | 40 | 90 |  | 
15 | Cc1c(NS(=O)(=O)C(F)(F)F)cc(N2CCC(OC3CCC3)C2=O)c(C)c1C (stereo not drawn) [Compound 45] | 90 | 100 | 100 | 70 | 90 |  | 
16 | Cc1c(NS(=O)(=O)C(F)(F)F)cc(N2CCC(OC3CC3)C2=O)c(C)c1C (stereo not drawn) [Compound 47] | 95 | 100 | 100 | 30 | 70 |  | 
17 | Cc1c(N2CCC(OC3CC3)C2=O)cc(N(COC(=O)C(C)(C)C)S(=O)(=O)C(F)(F)F)c(C)c1C (stereo not drawn) [Compound 49] | 90 | 30 | 100 | 10 | 50 |  | 
18 | Cc1c(N2CCC(OC3CC3)C2=O)cc(N(C(=O)OCC(C)C)S(=O)(=O)C(F)(F)F)c(C)c1C (stereo not drawn) [Compound 50] | 95 | 90 | 100 | 20 | 60 |  | 
19 | Cc1c(N2CCC(OC3CCC3)C2=O)cc(N(COC(=O)C(C)(C)C)S(=O)(=O)C(F)(F)F)c(C)c1C (stereo not drawn) [Compound 51] | 90 | 20 | 60 | 10 | 60 |  | 
20 | Cc1cc(C)c(N2CCC(OCC3CCC3(F)F)C2=O)cc1NS(=O)(=O)C(F)(F)F (stereo not drawn) [Compound 52] | 80 | 70 | 100 | 0 | 40 |  | 
21 | Cc1cc(C)c(N(COC(=O)C(C)(C)C)S(=O)(=O)C(F)(F)F)cc1N1CCC(OCC2CC2(F)F)C1=O (stereo not drawn) [Compound 54] | 98 | 0 | 50 | 0 | 50 |  | 
22 | Cc1cc(C)c(N(COC(=O)C(C)(C)C)S(=O)(=O)C(F)(F)F)cc1N1CCC(OCC2CC(F)(F)C2)C1=O (stereo not drawn) [Compound 55] | 95 | 0 | 30 | 0 | 40 |  | 
23 | Cc1cc(C)c(N(COC(=O)C(C)(C)C)S(=O)(=O)C(F)(F)F)cc1N1CCC(OCC2CCC2)C1=O (stereo not drawn) [Compound 56] | 95 | 10 | 90 | 0 | 40 |  | 
24 | Cc1cc(C)c(N2CCC(OCC3CCCC3)C2=O)cc1NS(=O)(=O)C(F)(F)F (stereo not drawn) [Compound 57] | 95 | 100 | 100 | 40 | 70 |  | 
25 | C#CC(C)OC1CCN(c2cc(NS(=O)(=O)C(F)(F)F)c(C)cc2C)C1=O (stereo not drawn) [Compound 58] | 95 | 100 | 100 | 50 | 80 |  | 
26 | C=C(C)COC1CCN(c2cc(NS(=O)(=O)C(F)(F)F)c(C)cc2C)C1=O (stereo not drawn) [Compound 59] | 95 | 100 | 100 | 40 | 80 |  | 
27 | CC#CCOC1CCN(c2cc(NS(=O)(=O)C(F)(F)F)c(C)cc2C)C1=O (stereo not drawn) [Compound 60] | 95 | 100 | 100 | 60 | 90 |  | 
28 | Cc1c(NS(=O)(=O)C(F)(F)F)cc(N2CCC(OCC3CC3)C2=O)c(C)c1F (stereo not drawn) [Compound 63] | 95 | 100 | 100 | 70 | 90 |  | 
29 | Cc1c(NS(=O)(=O)C(F)(F)F)cc(N2CCC(OCC3CCC3)C2=O)c(C)c1F (stereo not drawn) [Compound 64] | 95 | 100 | 100 | 60 | 70 |  | 
